Test results published in US8314098B2, “Pyrazolo-pyrimidine compounds” (Ajinomoto Co., Inc., priority 2008, dated 2012).

Legend:
[1] = tested on: TNF-α; assay: TNF-α production inhibition in macrophages derived from mouse abdomen (IFN-γ/SAC stimulation, ELISA); format: cell-based; details: Macrophage; mouse (Balb/c) abdominal macrophages, 100 ng/mL mouse IFN-γ + 0.05% SAC, overnight; TFA salts tested where prepared as such; read-out: TNF-α-Inhibitory Activity IC50
Procedure: (§1) One milliliter each of a 3% (w/v) thioglycolate solution was intraperitoneally administered to mice (female Balb/c mice), the abdominal cells of each mouse were recovered after 5 or 6 days from the administration of the thioglycolate solution and the adhesive cells were collected and used in the exaluation procedures. To a culture medium containing such adhesive cells, there were added 100 ng/mL of mouse interferon-γ and a 0.05% (v/v) liquid containing killed cells derived from Staphylococcus aureus Cowan I strain (SAC) and a candidate compound and then the mixture was cultivated overnight. After the completion of the cultivation, the survival ratios were determined, there were quantitatively determined the quantities of IL-12p70 (the complex of IL-12p35 and p40) and IL-12p40 or TNF-α according to the ELISA assays while making use of the recovered supernatant of the culture medium and the 50% production-inhibitory concentration (IC50) was calculated for each case (see Table 1 and Tables 1-9 for IL-12p70 and TNF-α and Tables 1 to 10 for IL-12p40).

[2] = tested on: IL-12p70 (the complex of IL-12p35 and p40); assay: IL-12p70 production inhibition in macrophages derived from mouse abdomen (IFN-γ/SAC stimulation, ELISA); format: cell-based; details: Macrophage; mouse (Balb/c) abdominal macrophages, 100 ng/mL mouse IFN-γ + 0.05% SAC, overnight; TFA salts tested where prepared as such; read-out: IL-12p70-Inhibitory Activity IC50
Procedure: as §1

| Structure (SMILES) | IC50 [1] | IC50 [2] |
| --- | --- | --- |
| C(=N\Nc1cc(N2CCOCC2)n2nccc2n1)/c1c[nH]c2ccccc12 [Compound 10, N-(1H-indol-3-yl-methylidene)-N′-(7-morpholin-4-yl-pyrazolo[1,5-a]pyrimidin-5-yl)-hydrazine] | > 10000 nM | 165 nM |
| Cc1cccc(CNNc2cc(N3CCOCC3)n3nc(-c4ccccc4)cc3n2)c1 [Compound 34, N-(3-methyl-benzyl)-N′-(7-morpholin-4-yl-2-phenyl-pyrazolo[1,5-a]pyrimidin-5-yl)-hydrazine] | > 10000 nM | 24 nM |
| Cc1cccc(/C=N/Nc2cc(N3CCOCC3)n3ncc(-c4ccccc4)c3n2)c1 [Compound 6, N-(3-methyl-benzylidene)-N′-(7-morpholin-4-yl-3-phenyl-pyrazolo[1,5-a]pyrimidin-5-yl)-hydrazine] | > 10000 nM | 642 nM |
| COc1ccc(C)cc1/C=N/Nc1cc(N2CCOCC2)n2nc(-c3ccccc3)cc2n1 [Compound 40, N-(2-methoxy-5-methyl-benzylidene)-N′-(7-morpholin-4-yl-2-phenyl-pyrazolo[1,5-a]pyrimidin-5-yl)-hydrazine] | > 10000 nM | 64 nM |
| Cc1cccc(/C=N/Nc2cc(N3CCOCC3)n3nc(-c4ccc(N5CCNCC5)cc4)cc3n2)c1 [Compound 21, N-(3-methyl-benzylidene)-N′-{7-morpholin-4-yl-2-(4-piperazin-1-yl-phenyl)-pyrazolo[1,5-a]pyrimidin-5-yl}-hydrazine] | > 10000 nM | 22 nM |
| Cc1cccc(/C=N/Nc2cc(N3CCOCC3)n3nc(-c4ccccc4C)cc3n2)c1 [Compound 14, N-(3-methyl-benzylidene)-N′-{2-(2-methyl-phenyl)-7-morpholin-4-yl-pyrazolo[1,5-a]pyrimidin-5-yl}-hydrazine] | > 10000 nM | 38 nM |
| Cc1[nH]c2ccccc2c1/C=N/Nc1cc(N2CCOCC2)n2nc(-c3ccccc3)cc2n1 [Compound 78, N-(2-methyl-1H-indol-3-yl-methylidene)-N′-(7-morpholin-4-yl-2-phenyl-pyrazolo[1,5-a]pyrimidin-5-yl)-hydrazine] | – | 440 nM |
| C(=N\Nc1cc(N2CCOCC2)n2nc(-c3ccncc3)cc2n1)/c1ccc2c(c1)OCCO2 [Compound 113, N-(2,3-dihydro-benzo[1,4]dioxin-6-yl-methylidene)-N′-(7-morpholin-4-yl-2-pyridin-4-yl-pyrazolo[1,5-a]pyrimidin-5-yl)-hydrazine] | – | 98 nM |
| Cc1ccc(-c2cc3nc(N/N=C/c4coc5ccccc45)cc(N4CCOCC4)n3n2)cn1 [Compound 111, N-benzofuran-3-yl-methylidene-N′-[2-(6-methyl-pyridin-3-0)-7-morpholin-4-yl-pyrazolo[1,5-a]pyrimidin-5-yl]-hydrazine] | – | 37 nM |
| Cc1cccc(/C=N/Nc2cc(N3CCOCC3)n3nc(-c4cncnc4)cc3n2)c1 [Compound 124, N-(3-methyl-benzylidene)-N′-(7-morpholin-4-yl-2-pyrimidin-5-yl-pyrazolo[1,5-a]pyrimidin-5-yl)-hydrazine] | – | 20 nM |
| Clc1ccccc1/C=N/Nc1cc(N2CCOCC2)n2nc(-c3ccccc3)cc2n1 [Compound 25, N-(2-chloro-benzylidene)-N′-(7-morpholin-4-yl-2-phenyl-pyrazolo[1,5-a]pyrimidin-5-yl)-hydrazine] | – | 150 nM |
| Cc1cccc(/C=N/Nc2cc(N3CCOCC3)n3nc(C4CCN(C(=O)OCc5ccccc5)CC4)cc3n2)c1 [Compound 131, N-[2-(1-benzyloxy-carbonyl-piperidin-4-yl)-7-morpholin-4-yl-pyrazolo[1,5-a]pyrimidin-5-yl]-N′-(3-methyl-benzylidene)-hydrazine] | – | 100 nM |
| Cc1ccsc1/C=N/Nc1cc(N2CCOCC2)n2nc(-c3ccccc3)cc2n1 [Compound 62, N-(3-methyl-thiophen-2-yl-methylidene)-N′-(7-morpholin-4-yl-2-phenyl-pyrazolo[1,5-a]pyrimidin-5-yl)-hydrazine] | – | 320 nM |
| Cc1cccc(/C=N/Nc2cc(N3CCOCC3)n3nc(OCc4ccccc4)cc3n2)c1 [Compound 134, N-(2-benzyloxy-7-morpholin-4-yl-pyrazolo[1,5-a]pyrimidin-5-yl)-N′-(3-methyl-benzylidene)-hydrazine] | – | 130 nM |
| Cc1cccc(/C=N/Nc2cc(N3CCOCC3)n3nc(N4CCOCC4)cc3n2)c1 [Compound 127, N-(3-methyl-benzylidene)-N-(2,7-dimorpholin-4-yl-pyrazolo[1,5-a]-pyrimidin-5-yl)-hydrazine] | – | 160 nM |
| OB(O)c1cccc(/C=N/Nc2cc(N3CCOCC3)n3nc(-c4ccccc4)cc3n2)c1 [Compound 139, N-(3-boronyl-benzylidene)-N-(7-morpholin-4-yl-2-phenyl-pyrazolo[1,5-a]pyrimidin-5-yl)-hydrazine] | – | 250 nM |
| Cc1nc2sccn2c1/C=N/Nc1cc(N2CCOCC2)n2nc(-c3ccccc3)cc2n1 [Compound 75, N-(6-methy-imidazo[2,1-b]thiazole-5-methylidene)-N′-(7-morpholin-4-yl-2-phenyl-pyrazolo[1,5-a]pyrimidin-5-yl)-hydrazine] | – | 290 nM |
| Cc1cccc(/C=N/Nc2cc(N3CCOCC3)n3nc(C4CCNCC4)cc3n2)c1 [Compound 132, N-(3-methyl-benzylidene)-N′-(7-morpholin-4-yl-2-piperidin-4-yl-pyrazolo[1,5-a]pyrimidin-5-yl)-hydrazine] | – | 470 nM |
| Cc1cccc(/C=N/Nc2cc(N3CCOCC3)n3nc(OCCOc4ccccc4)cc3n2)c1 [Compound 37, N-(3-methyl-benzylidene)-N′-[7-morpholin-4-yl-2-(2-phenoxy-ethoxy)-pyrazolo[1,5-a]pyrimidin-5-yl]-hydrazine] | – | 110 nM |

Now those with a lower IC50 [2], led by results:

| IC50 [1] | IC50 [2] | Structure (SMILES) |
| --- | --- | --- |
| > 10000 nM | 7 nM | C(=N\Nc1cc(N2CCOCC2)n2nc(-c3ccccn3)cc2n1)/c1c[nH]c2ccccc12 [Compound 36, N-(1H-indol-3-yl-methylidene)-N′-(7-morpholin-4-yl-2-pyridin-2-yl-pyrazolo[1,5-a]pyrimidin-5-yl)-hydrazine] |
| > 10000 nM | 4 nM | Cc1cccc(/C=N/Nc2cc(N3CCOCC3)n3nc(-c4ccc(N5CCOCC5)cc4)cc3n2)c1 [Compound 17, N-(3-methyl-benzylidene)-N′-{7-morpholin-4-yl-2-(4-morpholin-4-yl-phenyl)-pyrazolo[1,5-a]pyrimidin-5-yl}-hydrazine] |
| > 10000 nM | 8 nM | Cc1cccc(/C=N/Nc2cc(N3CCOCC3)n3nc(-c4ccccn4)cc3n2)c1 [Compound 20, N-(3-methyl-benzylidene)-N′-(7-morpholin-4-yl-2-pyridin-2-yl-pyrazolo[1,5-a]pyrimidin-5-yl)-hydrazine] |
| > 10000 nM | 19 nM | Cc1cccc(/C=N/Nc2cc(N3CCOCC3)n3nc(-c4ccccc4)cc3n2)c1 [Compound 1, N-(3-methyl-benzylidene)-N′-(2-phenyl-7-morpholin-4-yl-pyrazolo[1,5-a]pyrimidin-5-yl)-hydrazine] |
| > 10000 nM | 17 nM | Cc1cccc(/C=N/Nc2cc(N3CCOCC3)n3nc(-c4cccc(Cl)c4)cc3n2)c1 [Compound 12, N-{2-(3-chloro-phenyl)-7-morpholin-4-yl-pyrazolo[1,5-a]-pyrimidin-5-yl}-N′-(3-methyl-benzylidene)-hydrazine] |
| > 10000 nM | 18 nM | Cc1cccc(/C=N/Nc2cc(N3CCOCC3)n3nc(-c4ccc(Br)cc4)cc3n2)c1 [Compound 16, N-{2-(4-bromo-phenyl)-7-morpholin-4-yl-pyrazolo[1,5-a]-pyrimidin-5-yl}-N′-(3-methyl-benzylidene)-hydrazine] |
| > 10000 nM | 8.2 nM | Cc1cccc(/C=N/Nc2cc(N3CCOCC3)n3nc(-c4ccc(N5CCSCC5)cc4)cc3n2)c1 [Compound 69, N-(3-methyl-benzylidene)-N′-{7-morpholin-4-yl-2-(4-thiomorpholin-4-yl-phenyl)-pyrazolo[1,5-a]pyrimidin-5-yl}-hydrazine] |
| > 10000 nM | 5 nM | CC(=O)N1CCN(c2ccc(-c3cc4nc(N/N=C/c5cccc(C)c5)cc(N5CCOCC5)n4n3)cc2)CC1 [Compound 22, N-[2-{4-(4-acetyl-piperazin-1-yl)-phenyl}-7-morpholin-4-yl-pyrazolo[1,5-a]pyrimidin-5-yl]-N′-(3-methyl-benzylidene)-hydrazine] |
| > 10000 nM | 11 nM | COc1ccc(-c2cc3nc(N/N=C/c4cccc(C)c4)cc(N4CCOCC4)n3n2)cc1 [Compound 15, N-{2-(4-methoxy-phenyl)-7-morpholin-4-yl-pyrazolo[1,5-a]pyrimidin-5-yl}-N′-(3-methyl-benzylidene)-hydrazine] |
| – | 7.3 nM | Cc1cccc(/C=N/Nc2cc(N3CCOCC3)n3nc(-c4ccc(C)nc4)cc3n2)c1 [Compound 110, N-(3-methyl-benzylidene)-N′-[2-(6-methyl-pyridin-3-yl)-7-morpholin-4-yl-pyrazolo[1,5-a]pyrimidin-5-yl]-hydrazine] |
| – | 1.8 nM | C(=N\Nc1cc(N2CCOCC2)n2nc(-c3ccc(N4CCOCC4)nc3)cc2n1)/c1c[nH]c2ccccc12 [Compound 86, N-(1H-indol-3-yl-methylidene)-N′-[7-morpholin-4-yl-2-(6-morpholin-4-yl-pyridin-3-yl)-pyrazolo[1,5-a]pyrimidin-5-yl]-hydrazine] |
